Key:
[1] = test system: skin lesions of Poikiloderma of Civatte
Excerpt: FIG. 1 represents the delimited area of the patient's skin to be treated with a composition described in this document, containing an alpha-adrenergic agonist, namely brimonidine gel 0.33%, prior to applying the medicine.
FIG. 2 represents the area of the patient's skin to be treated with the composition mentioned above, immediately after applying the medicine.
Drawing 1 represents the area selected and marked with white pencil for applying a product containing the alpha-adrenergic agonist brimonidine at 0.33% on skin lesions of Poikiloderma of Civatte; this drawing represents the area prior to application. Drawing 2 represents the moment immediately after applying the composition, which was restricted to the small area marked on the skin of the patient.

[2] = clinical studies for acute erythema or diseases such as rosacea; cited from earlier work

## Brc1c(NC2=NCCN2)ccc2nccnc12 [brimonidine]
[1]; brimonidine at 0.33%, topical, marked skin area, 40 minutes after applying
  color of the skin affected by Poikiloderma of Civatte: effective improvement in the color of the skin
[1]; topical application of the product
  redness of the Poikiloderma of Civatte erythema: visibly improves the redness
[2]
  adverse events (most common: erythema, redness, burning sensation, contact dermatitis): less than or equal to 1%

— US20190111055A1, “USE OF PHARMACEUTICAL COMPOSITION FOR THE TREATMENT OF SKIN ERYTHEMA IN POIKILODERMAS” (priority 2016, published 2019)
